Results reported in patent US12588678B2, “Oxazoline compound, synthesis method therefor and application thereof” (NANKAI UNIVERSITY, priority 2019, dated 2026).

Assays:
[1] = tested on: Tetranychus cinnabarinus mite larvae; experiment: Larvicidal activity test, dipping method on bean seedling leaves; assay type: in vivo; conditions: for mortality at 1 µg/mL / mortality at 10 µg/mL / mortality at 100 µg/mL / mortality at 200 µg/mL / mortality at 0.1 µg/mL / mortality at 0.001 µg/mL / mortality at 0.01 µg/mL / mortality at 0.5 µg/mL / mortality at 0.05 µg/mL: Tetranychus cinnabarinus, 96 h, checked after 4 days; for mortality at 1 µg/mL: read-out: mortality of mite larvae (%), 1 mg/L; for mortality at 10 µg/mL: read-out: mortality of mite larvae (%), 10 mg/L; for mortality at 100 µg/mL: read-out: mortality of mite larvae (%), 100 mg/L; for mortality at 200 µg/mL: read-out: mortality of mite larvae (%), 200 mg/L; for mortality at 0.1 µg/mL: read-out: mortality of mite larvae (%), 0.1 mg/L; for acaricidal activity compared with etoxazole: Tetranychus cinnabarinus eggs and larvae, etoxazole as reference; for mortality at 0.001 µg/mL: read-out: mortality of mite larvae (%), 0.001 mg/L; for mortality at 0.01 µg/mL: read-out: mortality of mite larvae (%), 0.01 mg/L; for mortality at 0.5 µg/mL: read-out: mortality of mite larvae (%), 0.5 mg/L; for larvicidal activity, times that of etoxazole: relative to etoxazole; for mortality at 0.05 µg/mL: read-out: mortality of mite larvae (%), 0.05 mg/L
Outline: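 Dipping method: larvae-infested bean seedling leaves were immersed 5–6 s in Tween-containing test solution, with a blank of additives only. Larvae had hatched over 5 days from eggs laid during 24 h at 25° C. Mortality % was counted 4 days later, in triplicate.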

[2] = tested on: Tetranychus cinnabarinus mite eggs; experiment: Activity against mite eggs, dipping method on bean seedling leaves; assay type: in vivo; conditions: for mortality at 10 µg/mL / mortality at 100 µg/mL / mortality at 200 µg/mL / mortality at 1 µg/mL / mortality at 0.1 µg/mL / mortality at 0.001 µg/mL / mortality at 0.01 µg/mL / mortality at 0.5 µg/mL / mortality at 0.05 µg/mL: Tetranychus cinnabarinus, 96 h, checked after 4 days; for mortality at 10 µg/mL: read-out: mortality of mite eggs (%), 10 mg/L; for mortality at 100 µg/mL: read-out: mortality of mite eggs (%), 100 mg/L; for mortality at 200 µg/mL: read-out: mortality of mite eggs (%), 200 mg/L; for mortality at 1 µg/mL: read-out: mortality of mite eggs (%), 1 mg/L; for mortality at 0.1 µg/mL: read-out: mortality of mite eggs (%), 0.1 mg/L; for mortality at 0.001 µg/mL: read-out: mortality of mite eggs (%), 0.001 mg/L; for mortality at 0.01 µg/mL: read-out: mortality of mite eggs (%), 0.01 mg/L; for mortality at 0.5 µg/mL: read-out: mortality of mite eggs (%), 0.5 mg/L; for mortality at 0.05 µg/mL: read-out: mortality of mite eggs (%), 0.05 mg/L
Outline: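 Dipping method, three replicates each: leaves carrying 1-day-old mite eggs (24 h laying at 25° C.) immersed 5-6 s in compound solution or additive-only blank. Dead eggs counted 4 days later as percent of eggs treated.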

Structure (SMILES)	mortality at 1 µg/mL [1]	mortality at 10 µg/mL [1]	mortality at 100 µg/mL [1]	mortality at 200 µg/mL [1]	mortality at 10 µg/mL [2]	mortality at 100 µg/mL [2]	mortality at 200 µg/mL [2]	mortality at 0.1 µg/mL [1]	mortality at 1 µg/mL [2]	mortality at 0.1 µg/mL [2]	other results
CC(=O)N1CCN(Cc2ccc(C3COC(c4c(F)cccc4F)=N3)cc2)C1=O (stereo not drawn) [Compound R1-8]	35%	65%	95%	100%	40%	95%	100%	–	–	–	–
O=S(=O)(Oc1ccc(C2COC(c3c(F)cccc3F)=N2)cc1)c1ccc(C(F)(F)F)cc1 (stereo not drawn) [Compound R3-13]	80%	95%	100%	100%	90%	100%	100%	60%	70%	–	–
Fc1cccc(F)c1C1=NC(c2ccc(COc3ccccn3)cc2)CO1 (stereo not drawn) [Compound R2-12]	50%	95%	100%	100%	90%	100%	100%	–	65%	–	–
O=S(=O)(Oc1ccc(C2COC(c3c(F)cccc3F)=N2)cc1)c1ccc2c(c1)OCCO2 (stereo not drawn) [Compound R3-18]	50%	70%	90%	100%	50%	70%	100%	–	–	–	–
O=S(=O)(Oc1ccc(C2COC(c3c(F)cccc3F)=N2)cc1)c1ccc2ccccc2c1 (stereo not drawn) [Compound R3-21]	95%	100%	100%	100%	90%	95%	100%	65%	65%	–	–
O=S(=O)(Oc1ccc(C2COC(c3c(F)cccc3F)=N2)cc1)c1ccc(F)cc1F (stereo not drawn) [Compound R3-14]	80%	95%	100%	100%	85%	90%	100%	60%	50%	–	–
COCc1ccc(C2COC(c3c(F)cccc3F)=N2)cc1 (stereo not drawn) [Compound R2-1]	85%	100%	100%	100%	100%	100%	100%	50%	97%	60%	–
Fc1cccc(F)c1C1=NC(c2ccc(CN3CCc4ccccc4C3)cc2)CO1 (stereo not drawn) [Compound R1-13]	40%	70%	88%	100%	90%	100%	100%	–	60%	–	–
Fc1cccc(F)c1C1=NC(c2ccc(COCC(F)(F)F)cc2)CO1 (stereo not drawn) [Compound R2-5]	95%	100%	100%	100%	100%	100%	100%	90%	97%	90%	acaricidal activity compared with etoxazole [1]: higher acaricidal activity than etoxazole; mortality at 0.001 µg/mL [1]: 37%; mortality at 0.01 µg/mL [1]: 65%; mortality at 0.5 µg/mL [1]: 90%; larvicidal activity, times that of etoxazole [1]: 27 times; mortality at 0.001 µg/mL [2]: 47%; mortality at 0.01 µg/mL [2]: 70%; mortality at 0.5 µg/mL [2]: 90%; activity on mite eggs, times that of etoxazole ([2]; relative to etoxazole): 105 times
O=S(=O)(Oc1ccc(C2COC(c3c(F)cccc3F)=N2)cc1)c1ccc(F)cc1 (stereo not drawn) [Compound R3-7]	50%	90%	100%	100%	90%	100%	100%	–	60%	–	–
CCOCc1ccc(C2COC(c3c(F)cccc3F)=N2)cc1 (stereo not drawn) [Compound R2-2]	90%	90%	100%	100%	100%	100%	100%	80%	95%	85%	acaricidal activity compared with etoxazole [1]: higher acaricidal activity than etoxazole; mortality at 0.001 µg/mL [1]: 30%; mortality at 0.01 µg/mL [1]: 50%; mortality at 0.5 µg/mL [1]: 83%; mortality at 0.001 µg/mL [2]: 40%; mortality at 0.01 µg/mL [2]: 65%; mortality at 0.5 µg/mL [2]: 90%
Cc1ccc(S(=O)(=O)Oc2ccc(C3COC(c4c(F)cccc4F)=N3)cc2)cc1 (stereo not drawn) [Compound R3-16]	70%	85%	100%	100%	70%	92%	100%	–	50%	–	–
Fc1cccc(F)c1C1=NC(c2ccc(Cn3cccc3)cc2)CO1 (stereo not drawn) [Compound R1-5]	–	40%	90%	100%	45%	100%	100%	–	–	–	–
COc1ccc2ccn(Cc3ccc(C4COC(c5c(F)cccc5F)=N4)cc3)c2c1 (stereo not drawn) [Compound R1-25]	–	20%	70%	80%	65%	90%	100%	–	40%	–	–
CCCS(=O)(=O)Oc1ccc(C2COC(c3c(F)cccc3F)=N2)cc1 (stereo not drawn) [Compound R3-3]	100%	100%	100%	100%	100%	100%	100%	80%	90%	50%	acaricidal activity compared with etoxazole [1]: equivalent or better acaricidal activity compared with etoxazole; mortality at 0.05 µg/mL [1]: 40%; mortality at 0.5 µg/mL [1]: 95%; mortality at 0.05 µg/mL [2]: 20%; mortality at 0.5 µg/mL [2]: 75%
C=C(C)COCc1ccc(C2COC(c3c(F)cccc3F)=N2)cc1 (stereo not drawn) [Compound R2-6]	90%	100%	100%	100%	100%	100%	100%	80%	100%	95%	acaricidal activity compared with etoxazole [1]: higher acaricidal activity than etoxazole; mortality at 0.001 µg/mL [1]: 21%; mortality at 0.01 µg/mL [1]: 45%; mortality at 0.5 µg/mL [1]: 80%; mortality at 0.001 µg/mL [2]: 30%; mortality at 0.01 µg/mL [2]: 60%; mortality at 0.5 µg/mL [2]: 86%
N#Cc1ccc(S(=O)(=O)Oc2ccc(C3COC(c4c(F)cccc4F)=N3)cc2)cc1 (stereo not drawn) [Compound R3-22]	40%	70%	95%	100%	70%	90%	100%	–	45%	–	–
Cc1cccc2ccn(Cc3ccc(C4COC(c5c(F)cccc5F)=N4)cc3)c12 (stereo not drawn) [Compound R1-18]	85%	100%	100%	100%	100%	100%	100%	75%	80%	75%	acaricidal activity compared with etoxazole [1]: higher acaricidal activity than etoxazole; mortality at 0.01 µg/mL [1]: 45%; mortality at 0.05 µg/mL [1]: 55%; larvicidal activity, times that of etoxazole [1]: 5 times; mortality at 0.01 µg/mL [2]: 30%; mortality at 0.05 µg/mL [2]: 55%
Fc1cccc(F)c1C1=NC(c2ccc(COCC#Cc3ccccc3)cc2)CO1 (stereo not drawn) [Compound R2-8]	80%	92%	100%	100%	90%	100%	100%	50%	80%	60%	–
